This is an account of results in paper PMC4695825 (Pharmaceutics, 2015).

Each structure is given as a SMILES string. Structures can show the parent of a compound that is named as a salt. Where two headings read alike, the source gives them in different places.

Details of data set [1]: method as in PMID 20188808. The note with it: 400 μm needle length, cited from earlier work.
The conditions of data set [2]: cited from earlier work; for logP / water solubility: no reference given.
The conditions of data set [3]: cited from earlier work.
Details of data set [4]: method as in PMID 24333401. The note with it: nanostructured lipid carrier; cited from earlier work.
The conditions of data set [5]: mean ± SD, n = 6; for Microneedle cumulative amount after 12 h (Qs): skin treated with 500 μm microneedle roller.
Procedure: Frozen porcine ears were obtained from Animal Technologies, Tyler, TX, USA. Skin pieces were thawed at ambient temperatures and carefully shaved using an electric clipper (Wahl, Sterling, IL, USA). Full thickness skin was prepared by removing the subcutaneous fat from the underlying cartilage. The average thickness of the skin membrane was measured with a Digimatic Micrometer (Mitutoyo, Tokyo, Japan). Skin samples were maintained at −20 °C for storage. Prior to experiments, the skin samples were thawed at room temperature before use.
In vitro permeation experiments were conducted using a six-celled, static, vertical Franz diffusion cell system (PermeGear, Hellertown, PA, USA). Each cell contained a top donor compartment and a lower receptor compartment with a magnetic stirrer, sampling port, and water jacket maintained at 37 °C to simulate normal body temperature by Thermo Haake DC10-P5/U heating circulator bath (ThermoFisher Scientific, Waltham, MA, USA). The receptor compartment diffusion area was 1.77 cm^2 with a volume capacity of 12 mL filled with PBS. Skin samples obtained from different pigs were placed between the upper donor chamber and lower receiver chamber of the vertical Franz diffusion cells, which were sealed using high-vacuum grease (Dow Corning, Midland, MA, USA) and a metal clamp. Solid microneedle rollers were used to created microchannels in porcine skin. Full thickness microneedle-treated porcine skins were mounted on three-receptor compartments and untreated porcine skins were placed on the remaining three-receptor compartments to serve as controls, and diffusion experiments for the two drugs were replicated six times (n = 6). The microneedle roller was applied fifteen times to each skin sample to increase the number of microconduits for enhanced transdermal drug delivery. […] The sampling ports were also covered with parafilm to further reduce evaporation. […] Receptor chambers were replenished with an equal volume of fresh, pre-warmed PBS maintained at 37 °C. All samples were stored at 4 °C until analysis by LC–MS. The cumulative amount of each drug permeating the excised full thickness porcine skin was plotted as a function of time. The slope and intercept of the linear portion were derived by linear regression analysis. Steady state flux was calculated from the linear portion of the cumulative amount versus time curve.
Chromatographic separation was carried out on the reverse-phase Agilent Zorbax Eclipse Plus C18 (100 mm × 2.1 mm, 3.5 microns) analytical column, which was protected by a guard column with the same stationary phase (12.5 mm × 4.6 mm, 5 microns) (Agilent Technologies, Palo Alto, CA, USA). The column temperature was set at 40 °C, and the autosampler temperature was set at 4 °C. The mobile phase consisted of 0.1% formic acid in water (solvent A), and 0.1% formic acid in methanol (solvent B). […] A post-run time of 2 min for mobile phase equilibration was used after each sample run. Calibration curve standards were freshly prepared in PBS buffer solution. The MS data were collected in positive electro spray ionization tandem mass spectrometry (ESI MS/MS) mode. Nebulizer temperature was 350 °C, nebulizer pressure was 50 psi, and the drying gas flow rate was 10.0 L/min. Compounds were quantified in positive ESI MS/MS mode by quantifying the specific product ion.
Flux values were calculated using the steady-state portion of the cumulative amount versus time curves. Six replicates were used for the study.

Regarding `Nc1nc2c(ncn2COCCO)c(=O)[nH]1` [acyclovir], the “Flux enhancement after microneedle array pretreatment” value in data set [1] (2000 needles/cm^2) is on record as “significant enhancement”; in data set [1] (5625 needle/cm^2), “lower enhancement”.
With `NC12CC3CC(CC(C3)C1)C2` [amantadine hydrochloride, Amantadine hydrochloride], in data set [2], the partition coefficient is 2.44, the logP is reported as 2.4 and the water solubility is listed as 50 mg/mL. Besides, the pharmacokinetic half-life in data set [3] is listed as 10 h.
As to `Cc1cc2c(s1)Nc1ccccc1N=C2N1CCN(C)CC1` [olanzapine], the “Change in transdermal permeation rate after microneedle device pretreatment” value in data set [4] is “slight but not statistically significant increase”.
`CCCN[C@H]1CCc2nc(N)sc2C1` [pramipexole dihydrochloride] registered a Microneedle-facilitated transdermal flux in data set [5] (full thickness porcine ear skin treated with 500 μm stainless steel microneedle roller, 37 °C, donor amantadine ~50 mg/mL or pramipexole ~1 mg/mL, steady state) of 134.04 ± 0.98 μg/cm^2/h. Moreover, the “Microneedle cumulative amount after 12 h (Qs)” value worked out at 1583.43 ± 72.99 μg/cm^2 in data set [5] (12 h, listed as Pramipexole) and 1583.43 μg/cm^2 in data set [5] (12 h, listed as pramipexole). The “Passive (control) transdermal flux” value in data set [5] (untreated full thickness porcine ear skin, 37 °C, donor amantadine ~50 mg/mL or pramipexole ~1 mg/mL, steady state) was 134.83 ± 13.66 μg/cm^2/h. The “Passive (control) cumulative amount after 12 h (Qs)” value in data set [5] (untreated full thickness porcine ear skin, 12 h) worked out at 1607.86 ± 35.77 μg/cm^2. Moreover, the logP in data set [2] is listed as 1.2. Besides, the water solubility in data set [2] is recorded as over 20 mg/mL. Besides, the “octanolphosphate buffer partition coefficient” value in data set [2] (pH 7.4) is 0.135. Besides, in data set [3], the pharmacokinetic half-life is 6 to 8 h.

A word on the logP: it is the decadic logarithm of the partition coefficient of the neutral form, usually between octanol and water.
